In assay [1] the test system is murine bone marrow-derived macrophages. Description: area under cytotoxicity dose-response curve (AUC (% cytotoxicity x dose, relative)); higher = more cytotoxic. The conditions noted are these: duration: 6 days; dose range: 0.13-80 uM, 8 points. The method, boiled down: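 An 8-point, 2.5-fold dilution series (final 80–0.13 μM) was applied for 6 days at 37 °C in 5% CO2 to primary murine bone marrow-derived macrophages plated in opaque 384-well plates. Promega's CellTiter-Glo luminescence assay measured viability, and percent cytotoxicity was normalised against vehicle and positive control wells. The area under the dose–response curve, worked out in GraphPad Prism version 10, is the reported cytotoxicity measure.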

Assay [2] concerns Mycobacterium tuberculosis CDC1551 (intracellular, in murine BMDM). Description: area under intracellular growth-inhibition dose-response curve (AUC (% inhibition x dose, relative)); higher = more potent. The conditions noted are these: duration: 6 days; dose range: 0.13-80 uM, 8 points. The method, boiled down:
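Each value is an area under the growth-inhibition dose–response curve, calculated with GraphPad Prism. Infected primary murine bone marrow-derived macrophages, carrying luciferase-expressing M. tuberculosis CDC1551 at multiplicity of infection 1, were treated for 6 days with an 8-dose, 2.5-fold series (final 80–0.13 μM) in 384-well opaque plates. Readout was by Bright-Glo luciferin assay, normalised to a reference drug control and the lowest-concentration wells.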

Molecules are shown by their SMILES.

The text below walks through data of the supplement of paper PMC11997997.

With `C=C[C@]1(C)C[C@@H](OC(=O)CSCCN(CC)CC)[C@]2(C)C(C)CC[C@]3(CCC(=O)[C@H]32)[C@@H](C)[C@@H]1O` (some centres undefined), the “area under cytotoxicity dose-response curve” value in assay [1] is less than 0. Further, in assay [2], the “area under intracellular growth-inhibition dose-response curve” value was determined as 231.

For `O=C(NC12CC3CC(CC(C3)C1)C2)c1ccc(Br)o1`, in assay [1], the “area under cytotoxicity dose-response curve” value was less than 0. For the same compound, in assay [2], the “area under intracellular growth-inhibition dose-response curve” value is 171.

As to `CC1CCCCC1NC(=O)c1cc2ccccc2o1` (centres undefined), in assay [1], the “area under cytotoxicity dose-response curve” value was 32.6. Besides, the “area under intracellular growth-inhibition dose-response curve” value in assay [2] is 258.

For the compound `CC(NC(=S)Nc1ccc(OC(F)F)c(Cl)c1)C(C)(C)C` (centres undefined), the “area under cytotoxicity dose-response curve” value in assay [1] stood at 12.4. Besides, the “area under intracellular growth-inhibition dose-response curve” value in assay [2] was found to be 198.

Take `CC[N+](CC)(CC)CCCCOc1ccc2c(c1)C(=O)c1cc(OCCCC[N+](CC)(CC)CC)ccc1-2.[I-]`: the “area under cytotoxicity dose-response curve” value in assay [1] stood at 56.8. For the same compound, the “area under intracellular growth-inhibition dose-response curve” value in assay [2] is 92.4.

With `O=C(Nc1ccc(NC(=S)NC(=O)c2ccccc2F)cc1)c1cccs1`, the “area under cytotoxicity dose-response curve” value in assay [1] worked out at 13.8. The “area under intracellular growth-inhibition dose-response curve” value in assay [2] is 268.

On to `CSc1ccc(NC(N)=S)cc1`, for which the “area under cytotoxicity dose-response curve” value in assay [1] was 35.6. Further, the “area under intracellular growth-inhibition dose-response curve” value in assay [2] was determined as 248.

On to `C/C(CC(=O)Nc1ccc(N(C)C)cc1)=N\NC(=O)c1ccncc1`, for which the “area under cytotoxicity dose-response curve” value in assay [1] came out at 20.2. In addition, the “area under intracellular growth-inhibition dose-response curve” value in assay [2] came out at 219.

On to `Cc1oc(-c2cccs2)nc1CSCC(=O)N1CCC2(CC1)OCCO2`, for which the “area under cytotoxicity dose-response curve” value in assay [1] was 37.4. The “area under intracellular growth-inhibition dose-response curve” value in assay [2] amounted to 48.9.

As for `Cc1ccc(OCCCC(=O)NNC(=O)c2ccncc2)cc1`, the “area under cytotoxicity dose-response curve” value in assay [1] came to 10.4. In addition, the “area under intracellular growth-inhibition dose-response curve” value in assay [2] came out at 268.

`Cc1ccc(C(=O)OCC(=O)Nc2ccccc2)cc1S(=O)(=O)N1CCCCC1`: the “area under cytotoxicity dose-response curve” value in assay [1] is less than 0. For the same compound, the “area under intracellular growth-inhibition dose-response curve” value in assay [2] is 94.3.

As to `Cc1c(Cl)cnn1CC(=O)NC1C(=O)N2C(C(=O)O)=C(CSc3nnnn3C)CSC12` (centres undefined), in assay [1], the “area under cytotoxicity dose-response curve” value was found to be 18.6. Besides, the “area under intracellular growth-inhibition dose-response curve” value in assay [2] was 168.

`CC1CCCC(C)N1C(=O)COC(=O)c1cccnc1Cl` (centres undefined): in assay [1], the “area under cytotoxicity dose-response curve” value was 9.13. Besides, the “area under intracellular growth-inhibition dose-response curve” value in assay [2] was 33.7.

Turning to `CCC(=O)NC(=S)Nc1ccc(NC(=S)NC(=O)c2ccccc2)cc1`, in assay [1], the “area under cytotoxicity dose-response curve” value is 48.6. The “area under intracellular growth-inhibition dose-response curve” value in assay [2] worked out at 263.

For `Cc1cnc(C(=O)OCC(=O)Nc2cccc3ccccc23)cn1`, in assay [1], the “area under cytotoxicity dose-response curve” value is less than 0. In assay [2], the “area under intracellular growth-inhibition dose-response curve” value was 15.8.

Take `COc1cc(/C=N/NC(=O)c2ccncc2)ccc1OC(=O)c1cccc(F)c1`: the “area under cytotoxicity dose-response curve” value in assay [1] turned out to be 88.7. For the same compound, the “area under intracellular growth-inhibition dose-response curve” value in assay [2] came to 111.

Take `O=C(/C=C/c1cccs1)NCc1ccccc1`: the “area under cytotoxicity dose-response curve” value in assay [1] worked out at 10.6. Further, in assay [2], the “area under intracellular growth-inhibition dose-response curve” value was determined as 217.

Take `OC(CCCC(O)c1ccccc1)c1ccccc1` (centres undefined): the “area under cytotoxicity dose-response curve” value in assay [1] is 31.6. The “area under intracellular growth-inhibition dose-response curve” value in assay [2] was 203.

In the case of `COc1cccc(OCC(=O)NC2CCCCC2)c1`, the “area under cytotoxicity dose-response curve” value in assay [1] amounted to 94. Also, the “area under intracellular growth-inhibition dose-response curve” value in assay [2] worked out at 226.

Turning to `CCOC(=O)[N-]c1c[n+](N2CCOCC2)no1`, the “area under cytotoxicity dose-response curve” value in assay [1] is 41.1. The “area under intracellular growth-inhibition dose-response curve” value in assay [2] came out at 28.

Turning to `CC1CCC(C(C)C)C(OC(=O)Cn2c(COc3ccccc3)[n+](C)c3ccccc32)C1.[Cl-]` (centres undefined), the “area under cytotoxicity dose-response curve” value in assay [1] came to 39.3. In assay [2], the “area under intracellular growth-inhibition dose-response curve” value is 201.

`C/C(=N\NC(N)=S)c1ccc2c(c1)OCCO2`: the “area under cytotoxicity dose-response curve” value in assay [1] was found to be 25.3. The “area under intracellular growth-inhibition dose-response curve” value in assay [2] is 196.

Regarding `Cc1ccc(OCCCC(=O)Nc2ccc(S(=O)(=O)N3CCOCC3)cc2)cc1`, the “area under cytotoxicity dose-response curve” value in assay [1] is 3.26. The “area under intracellular growth-inhibition dose-response curve” value in assay [2] amounted to 53.8.

Take `CCOC(=O)CCCc1ccc(/C(C)=N/NC(N)=S)cc1`: in assay [1], the “area under cytotoxicity dose-response curve” value came out at 65.1. Also, the “area under intracellular growth-inhibition dose-response curve” value in assay [2] worked out at 156.

With `COc1ccc(CCNC(=S)Nc2ccccc2)cc1`, the “area under cytotoxicity dose-response curve” value in assay [1] is 78.8. Further, the “area under intracellular growth-inhibition dose-response curve” value in assay [2] turned out to be 134.

For the compound `COc1cccc(OCCNC(=O)c2cc([N+](=O)[O-])cc([N+](=O)[O-])c2)c1`, in assay [1], the “area under cytotoxicity dose-response curve” value came to 10.6. Further, the “area under intracellular growth-inhibition dose-response curve” value in assay [2] came to 265.

As to `COc1ccc(C(=O)Oc2cccc(/C=N/NC(N)=S)c2)cc1`, the “area under cytotoxicity dose-response curve” value in assay [1] is 65. Moreover, the “area under intracellular growth-inhibition dose-response curve” value in assay [2] worked out at 145.

Take `CC(=O)N1CCN(c2ccc(NC(=O)c3ccc([N+](=O)[O-])o3)cc2Cl)CC1`: the “area under cytotoxicity dose-response curve” value in assay [1] is 88.8. For the same compound, in assay [2], the “area under intracellular growth-inhibition dose-response curve” value worked out at 49.4.

Regarding `Cc1nnc(SCC2=C(C(=O)O)N3C(=O)C(NC(=O)Cn4cnnn4)C3SC2)s1` (centres undefined), the “area under cytotoxicity dose-response curve” value in assay [1] was 100. Further, the “area under intracellular growth-inhibition dose-response curve” value in assay [2] was 138.

For `COc1cc(C(C)=NNC(=O)c2ccncc2)ccc1O`, the “area under cytotoxicity dose-response curve” value in assay [1] was determined as 47.1. Moreover, the “area under intracellular growth-inhibition dose-response curve” value in assay [2] stood at 265.

For the compound `Cc1cccc(N2CCN(Cc3ccc([N+](=O)[O-])o3)CC2)c1C`, the “area under cytotoxicity dose-response curve” value in assay [1] amounted to 38.8. Further, the “area under intracellular growth-inhibition dose-response curve” value in assay [2] is 221.

Consider `C[C@@H](CN1CCC[C@H]1CN1C(N)=NC[C@@H]1Cc1ccccc1)N1C[C@@H](Cc2ccccc2)N(CCCC2CCCC2)C1=N`, for which, in assay [1], the “area under cytotoxicity dose-response curve” value was 22.1. In assay [2], the “area under intracellular growth-inhibition dose-response curve” value was 98.

As for `CN(CC(=O)Nc1ccc(OC(F)(F)F)cc1)C(=O)/C=C/c1cc2c(cc1[N+](=O)[O-])OCO2`, in assay [1], the “area under cytotoxicity dose-response curve” value was less than 0. For the same compound, the “area under intracellular growth-inhibition dose-response curve” value in assay [2] came to 135.

Consider `Cc1ccnc2c1ccc1c(C)ccnc12.O`, for which the “area under cytotoxicity dose-response curve” value in assay [1] came to 38.9. For the same compound, in assay [2], the “area under intracellular growth-inhibition dose-response curve” value was 199.

With `CCOc1ccc2ccccc2c1/C=N/NC(=O)c1ccncc1`, in assay [1], the “area under cytotoxicity dose-response curve” value is less than 0. In assay [2], the “area under intracellular growth-inhibition dose-response curve” value was 270.

Consider `COc1ccc(/C=N/NC(N)=S)cc1`, for which the “area under cytotoxicity dose-response curve” value in assay [1] worked out at 4.45. For the same compound, in assay [2], the “area under intracellular growth-inhibition dose-response curve” value was found to be 258.

Consider `CC(=O)c1cc(NC(=O)c2cccc(C(F)(F)F)c2)c(=O)oc1/C=C/N(C)C`, for which, in assay [1], the “area under cytotoxicity dose-response curve” value was found to be 64.4. Moreover, in assay [2], the “area under intracellular growth-inhibition dose-response curve” value came out at 194.

Turning to `CN(C)c1ccc(O)c2c1CC1CC3[C@@H](N(C)C)C(=O)C(C(N)=O)=C(O)[C@]3(O)C(=O)C1=C2O.Cl` (some centres undefined), the “area under cytotoxicity dose-response curve” value in assay [1] was 112. Moreover, the “area under intracellular growth-inhibition dose-response curve” value in assay [2] was determined as 246.

Take `Cc1nnc(SCC2=C(C(=O)O)N3C(=O)C(NC(=O)Cn4nc(C(F)F)c(Cl)c4C)C3SC2)s1` (centres undefined): the “area under cytotoxicity dose-response curve” value in assay [1] was less than 0. Besides, the “area under intracellular growth-inhibition dose-response curve” value in assay [2] stood at 193.

On to `CCCN(CCC)CC(O)Cn1cc(/C=C/C(=O)c2cccs2)c2ccccc21` (centres undefined), for which the “area under cytotoxicity dose-response curve” value in assay [1] was 2.01. In assay [2], the “area under intracellular growth-inhibition dose-response curve” value was 231.

For the compound `NC1CCN(c2c(F)cc3c(=O)c(C(=O)O)cn(C4CC4)c3c2Cl)C1` (centres undefined), in assay [1], the “area under cytotoxicity dose-response curve” value is less than 0. In addition, the “area under intracellular growth-inhibition dose-response curve” value in assay [2] was 210.

Regarding `CCC(CO)N1C(C)=CC(=Cc2sc3ccccc3[n+]2Cc2ccccc2)C=C1C.[Br-]` (centres undefined), the “area under cytotoxicity dose-response curve” value in assay [1] amounted to 54.8. Also, the “area under intracellular growth-inhibition dose-response curve” value in assay [2] was determined as 176.

As to `O=C(NCc1ccc(F)cc1)c1cc2ccccc2o1`, the “area under cytotoxicity dose-response curve” value in assay [1] was determined as 48.5. Further, the “area under intracellular growth-inhibition dose-response curve” value in assay [2] was 254.

In the case of `O=C(COc1ccccc1)NC1CCCCC1`, the “area under cytotoxicity dose-response curve” value in assay [1] was 80.6. The “area under intracellular growth-inhibition dose-response curve” value in assay [2] amounted to 260.

Turning to `O=C(COC(=O)Cc1ccc(Cl)cc1)NCc1cccs1`, in assay [1], the “area under cytotoxicity dose-response curve” value is 18.4. In assay [2], the “area under intracellular growth-inhibition dose-response curve” value came to 37.1.

As to `CCOc1ncnc2c1oc1nc(CC(C)C)c3c(c12)CC(C)(C)OC3`, the “area under cytotoxicity dose-response curve” value in assay [1] amounted to 63.6. Also, the “area under intracellular growth-inhibition dose-response curve” value in assay [2] was determined as 115.

Turning to `COc1cccc2sc(N3CCN(C(=O)c4ccc([N+](=O)[O-])o4)CC3)nc12`, the “area under cytotoxicity dose-response curve” value in assay [1] was determined as 57.3. Besides, the “area under intracellular growth-inhibition dose-response curve” value in assay [2] was 6.52.

Take `CC(=O)c1cc(NC(=O)c2ccccc2)c(=O)oc1/C=C/N(C)C`: the “area under cytotoxicity dose-response curve” value in assay [1] amounted to 30.2. In assay [2], the “area under intracellular growth-inhibition dose-response curve” value worked out at 160.

As for `O=C(NN=C(Cc1ccccc1)Cc1ccccc1)c1ccncc1`, in assay [1], the “area under cytotoxicity dose-response curve” value is 7.4. For the same compound, the “area under intracellular growth-inhibition dose-response curve” value in assay [2] came out at 257.

In the case of `CCOc1ccc(-n2cc(-c3ccc(OC)c(OC)c3)nc2S)cc1`, the “area under cytotoxicity dose-response curve” value in assay [1] came out at 81.6. In addition, the “area under intracellular growth-inhibition dose-response curve” value in assay [2] is 210.

For the compound `CCC(=O)NC(=S)Nc1ccc(NC(=O)c2ccco2)cc1`, in assay [1], the “area under cytotoxicity dose-response curve” value amounted to 64.5. Also, the “area under intracellular growth-inhibition dose-response curve” value in assay [2] is 233.

As to `COc1cc(/C=N/NC(=O)c2ccncc2)ccc1O`, the “area under cytotoxicity dose-response curve” value in assay [1] amounted to 11.1. The “area under intracellular growth-inhibition dose-response curve” value in assay [2] is 217.
